Measurements reported in the supplement of paper PMC5908809.

Columns and labels:
[1] = tested on: normal NK cells expanded with K562-aAPC; test: percent inhibition of viability; higher = more inhibition; conditions: 72 h, IL-2 2.5 ng/mL
Experimental: (§1)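 Drug sensitivity and resistance testing on K562-aAPC-expanded normal NK cells: 5 concentrations (10-fold steps over a 10,000-fold range), 72 h at 37 °C, viability by CellTiter-Glo normalised to DMSO and benzethonium chloride controls; DSS from the fitted curve.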

DERL-7 (IL-2 2.5 ng/mL) [2] = test: as above; conditions: 72 h
IMC-1 (IL-2 20 ng/mL) [3] = test: as above; conditions: 72 h
KAI3 (IL-2 2.5 ng/mL) [4] = test: as above; conditions: 72 h
KHYG-1 (IL-2 2.5 ng/mL) [5] = test: as above; conditions: 72 h
NK-92 (IL-2 2.5 ng/mL) [6] = test: as above; conditions: 72 h
NK-YS (IL-2 2.5 ng/mL) [7] = test: as above; conditions: 72 h
NKL (IL-2 2.5 ng/mL) [8] = test: as above; conditions: 72 h
SNK-6 (IL-2 2.5 ng/mL) [9] = test: as above; conditions: 72 h
YT (IL-2 2.5 ng/mL) [10] = test: as above; conditions: 72 h
[11] = tested on: normal primary NK cells, pool 1 (3 donors) (IL-2 2.5 ng/mL); test: as above; conditions: 72 h
[12] = tested on: normal primary NK cells, pool 1 (3 donors), resting (IL-2 0 ng/mL); test: as above; conditions: 72 h
[13] = tested on: normal primary NK cells, pool 2 (3 donors) (IL-2 2.5 ng/mL); test: as above; conditions: 72 h
[14] = tested on: normal primary NK cells, pool 3 (3 donors) (IL-2 2.5 ng/mL); test: as above; conditions: 72 h
[15] = tested on: normal NK cells expanded with K562-aAPC; test: drug sensitivity score (DSS) (DSS units); higher = more sensitive; extreme values may be limits of the assay; conditions: 72 h; IL-2 2.5 ng/mL
Experimental: as §1

DERL-7 (IL-2 2.5 ng/mL) [16] = test: as above; conditions: 72 h
IMC-1 (IL-2 20 ng/mL) [17] = test: as above; conditions: 72 h
KAI3 (IL-2 2.5 ng/mL) [18] = test: as above; conditions: 72 h
KHYG-1 (IL-2 2.5 ng/mL) [19] = test: as above; conditions: 72 h
NK-92 (IL-2 2.5 ng/mL) [20] = test: as above; conditions: 72 h
NK-YS (IL-2 2.5 ng/mL) [21] = test: as above; conditions: 72 h
NKL (IL-2 2.5 ng/mL) [22] = test: as above; conditions: 72 h
SNK-6 (IL-2 2.5 ng/mL) [23] = test: as above; conditions: 72 h
YT (IL-2 2.5 ng/mL) [24] = test: as above; conditions: 72 h
[25] = tested on: normal primary NK cells, pool 1 (3 donors) (IL-2 2.5 ng/mL); test: as above; conditions: 72 h
[26] = tested on: normal primary NK cells, pool 1 (3 donors), resting (IL-2 0 ng/mL); test: as above; conditions: 72 h
[27] = tested on: normal primary NK cells, pool 2 (3 donors) (IL-2 2.5 ng/mL); test: as above; conditions: 72 h
[28] = tested on: normal primary NK cells, pool 3 (3 donors) (IL-2 2.5 ng/mL); test: as above; conditions: 72 h

CCN1CCN(c2ccc(Nc3cc(N(C)C(=O)Nc4c(Cl)c(OC)cc(OC)c4Cl)ncn3)cc2)CC1 [NVP-BGJ398] (max concentration tested 1000 nM)
percent inhibition of viability [%]
Conditions | 0.1 nM | 1 nM | 10 nM | 100 nM | 1000 nM
DERL-7 (IL-2 2.5 ng/mL) [2] | 2.66 | 5.38 | 2.13 | 4.05 | 8.48
IMC-1 (IL-2 20 ng/mL) [3] | -7.18 | 3.41 | -1.12 | 4.31 | -1.42
KAI3 (IL-2 2.5 ng/mL) [4] | -2.53 | -7.26 | -1.75 | 2.95 | 5.14
KHYG-1 (IL-2 2.5 ng/mL) [5] | -6.77 | -2.35 | -1.84 | 3.9 | 22.1
NK-92 (IL-2 2.5 ng/mL) [6] | -11.4 | 1.56 | 9.63 | 19.4 | 17.8
NK-YS (IL-2 2.5 ng/mL) [7] | -4.6 | -4.02 | -4.62 | -2.71 | 6.5
NKL (IL-2 2.5 ng/mL) [8] | -0.94 | -7.47 | 0.95 | 4.24 | 15
SNK-6 (IL-2 2.5 ng/mL) [9] | -1.53 | -0.29 | -14.4 | -13.1 | -6.84
YT (IL-2 2.5 ng/mL) [10] | -2.36 | 0.47 | -1.37 | 5.31 | 11.7
[1] | -0.93 | -6.78 | -4.9 | 4.74 | 2.68
[11] | 4.34 | 9.33 | 11.6 | 4.78 | 12.1
[12] | -6.47 | 4.3 | 1.93 | 4.77 | 19.9
[13] | -8.08 | 5.48 | 12.3 | 1.57 | 12.6
[14] | -6.2 | 7.43 | 9.02 | 0.22 | 7.33

Conditions | drug sensitivity score
DERL-7 (IL-2 2.5 ng/mL) [16] | 0
IMC-1 (IL-2 20 ng/mL) [17] | 0
KAI3 (IL-2 2.5 ng/mL) [18] | 0
KHYG-1 (IL-2 2.5 ng/mL) [19] | 1.3
NK-92 (IL-2 2.5 ng/mL) [20] | 3.27
NK-YS (IL-2 2.5 ng/mL) [21] | 0
NKL (IL-2 2.5 ng/mL) [22] | 0.59
SNK-6 (IL-2 2.5 ng/mL) [23] | 0
YT (IL-2 2.5 ng/mL) [24] | 0.2
[15] | 0
[25] | 0
[26] | 1.18
[27] | 0.05
[28] | 0

CC[C@]1(O)C[C@@H]2CN(CCc3c([nH]c4ccccc34)[C@@](C(=O)OC)(c3cc4c(cc3OC)N(C)[C@H]3[C@@](O)(C(=O)OC)[C@H](OC(C)=O)[C@]5(CC)C=CCN6CC[C@]43[C@@H]65)C2)C1 [Vinblastine] (max concentration tested 1000 nM)
percent inhibition of viability [%]
Conditions | 0.1 nM | 1 nM | 10 nM | 100 nM | 1000 nM
DERL-7 (IL-2 2.5 ng/mL) [2] | -13.4 | -1.94 | 99.7 | 101 | 99.8
IMC-1 (IL-2 20 ng/mL) [3] | -4.96 | -7.43 | 99.5 | 101 | 100
KAI3 (IL-2 2.5 ng/mL) [4] | -16.5 | -7.66 | 45.5 | 71.1 | 82.4
KHYG-1 (IL-2 2.5 ng/mL) [5] | -4.6 | -0.24 | 96.7 | 108 | 110
NK-92 (IL-2 2.5 ng/mL) [6] | -11.5 | -1.18 | 64.9 | 100 | 107
NK-YS (IL-2 2.5 ng/mL) [7] | -5.37 | -3.92 | 70.7 | 69.4 | 90.8
NKL (IL-2 2.5 ng/mL) [8] | -3.5 | 4.6 | 90.8 | 97.5 | 102
SNK-6 (IL-2 2.5 ng/mL) [9] | -13.4 | -12.2 | 83.3 | 91.1 | 97.8
YT (IL-2 2.5 ng/mL) [10] | -6.33 | -5.56 | 88.8 | 105 | 107
[1] | -6.33 | -1.7 | 26.7 | 60.2 | 63
[11] | -10.7 | 7.03 | 4.09 | 14.3 | 22.7
[12] | -21.5 | 2.75 | -2.96 | 17.9 | 28.1
[13] | -6.34 | 7.02 | 16.6 | 16.1 | 23.6
[14] | -4.89 | 5.36 | 12.3 | 3.78 | 13.7

Conditions | drug sensitivity score
DERL-7 (IL-2 2.5 ng/mL) [16] | 30.2
IMC-1 (IL-2 20 ng/mL) [17] | 29.8
KAI3 (IL-2 2.5 ng/mL) [18] | 20.6
KHYG-1 (IL-2 2.5 ng/mL) [19] | 30
NK-92 (IL-2 2.5 ng/mL) [20] | 25.6
NK-YS (IL-2 2.5 ng/mL) [21] | 24.6
NKL (IL-2 2.5 ng/mL) [22] | 29.5
SNK-6 (IL-2 2.5 ng/mL) [23] | 27.2
YT (IL-2 2.5 ng/mL) [24] | 28.4
[15] | 14.7
[25] | 1.97
[26] | 3.19
[27] | 4.33
[28] | 0.31
